Experimental data as given in BigSolDB 2.1.

NC12CC3CC(C1)CC(O)(C3)C2
solubility (mole fraction)
Settings	in THF	in ethanol	in methanol	in n-butanol	in n-propanol	in water
278.15 K	0.0201	0.0608	0.0136	0.0626	0.133	0.0125
283.15 K	0.0213	0.0768	0.0176	0.0657	0.145	0.0146
288.15 K	0.0229	0.0974	0.0209	0.0679	0.157	0.0173
293.15 K	0.0247	0.123	0.0253	0.0704	0.171	0.0207
298.15 K	0.0269	0.151	0.0297	0.0736	0.185	0.0233
303.15 K	0.0294	0.183	0.0352	0.0761	0.2	0.0266
308.15 K	0.0323	0.219	0.0422	0.0799	0.216	0.0306
313.15 K	0.0356	0.256	0.0509	0.0827	0.234	0.0354
318.15 K	0.0394	0.296	0.0618	0.0868	0.252	0.0413
323.15 K	0.0439	0.337	0.0754	0.0904	0.272	0.0486
328.15 K	0.049	0.389	0.0926	0.0943	0.293	0.0575
